Assay results: paper PMC5471438, “Linaclotide activates guanylate cyclase‐C/cGMP/protein kinase‐II‐dependent trafficking of CFTR in the intestine” (Physiological Reports, 2017)

Assays:
GC‐C = assay: cGMP in human intestinal mucosa tissues and supernatants; details: human jejunum, ileum, ascending colon mucosa, linaclotide 1 μmol/L, 30 and 60 min, 37°C, IBMX 1 mmol/L, EIA, mean ± SD (n = 4)
[1] = tested on: rat proximal colonic mucosa; set-up: method as in 2 sources, one per row (each row's own in cited_ref): ref Tchernychev et al. 2015 ||| ref Vaandrager et al. 1997; details: rat proximal colon / colonic epithelium; ref Tchernychev et al. 2015; read-out: EC50 for transepithelial ion current; cited from earlier work
[2] = via extracellular cGMP; ref Castro et al. 2013; Silos‐Santiago et al. 2013; Hannig et al. 2014; cited from earlier work
Excerpt: (§1) While the increase in intracellular cGMP following ligand activation of GC‐C is well established, the efflux of cGMP from enterocytes is not well studied.

rat colonic mucosa = details: apical and basolateral membrane, ref Silos‐Santiago et al. 2013, Tchernychev et al. 2015; cited from earlier work
Excerpt: as §1

mouse colonic mucosa = details: apical and basolateral membrane, ref Silos‐Santiago et al. 2013, Tchernychev et al. 2015; cited from earlier work
Excerpt: as §1

Caco‐2 cell line = details: human colonic Caco‐2 cell line; ref Castro et al. 2013; Silos‐Santiago et al. 2013; cited from earlier work
Excerpt: as §1

linaclotide
cGMP level in supernatant (extracellular) (GC‐C): greater after 30 min, compared to levels measured after 60 min | cGMP level in tissue (intracellular) (GC‐C): greater after 30 min, compared to levels measured after 60 min | cGMP level in supernatant (extracellular) (GC‐C; listed as Linaclotide): increased levels of both intracellular and extracellular cGMP | cGMP level in tissue (intracellular) (GC‐C; listed as Linaclotide): increased levels of both intracellular and extracellular cGMP | EC50 [1]: 9.2 nM | antinociceptive effect [2]: antinociceptive effects in several models of colonic hypersensitivity | cGMP efflux (rat colonic mucosa): induce cGMP efflux | cGMP efflux (mouse colonic mucosa): induce cGMP efflux | cGMP efflux (Caco‐2 cell line): induce cGMP efflux
